Measured values taken from US20250026761A1, “DIAZABICYCLOOCTANE DERIVATIVES USEFUL AS MATRIX METALLOPROTEINASE INHIBITORS” (VASA THERAPEUTICS SPÓLKA Z OGRANICZONA ODPOWIEDZIALNOSCIA, priority 2021, published 2025).

Tests used:
Assay type in all cases: biochemical
MMP2 = molecular target: T1, MMP2 (Homo sapiens, UniProt P08253); assay: MMP-2 colorimetric inhibition assay (Enzo kit); settings: colorimetric thiopeptide substrate, absorbance 415 nm; read-out: MMP2 IC50 class
T1 construct: purchased Enzo Life Sciences, Inc. BML-AK408
Experimental: (§1) The inhibitory activities of the compounds of the invention were assessed in 96-well microplate format using MMP1, MMP2, MMP9 and MMP13 colorimetric assay kits and TACE fluorometric assay kit from Enzo Life Sciences, Inc. The inhibitory effect of the compounds of the invention on ADAM10 activity were evaluated in 96-well microplate format using fluorometric assay from AnaSpec, Inc.
(§2) The MMP-2 Colorimetric Drug Discovery Kit (catalog #BML-AK408) is a complete assay system designed to screen MMP-2 inhibitors using a thiopeptide as a chromogenic substrate (Ac-PLG-[2-mercapto-4-methylpentanoyl]-LG-OC2H5). The MMP cleavage site peptide bond is replaced by a thioester bond in the thiopeptide. Hydrolysis of this bond by an MMP produces a sulfhydryl group, which reacts with DTNB [5,5′-dithiobis(2-nitrobenzoic acid), Ellman's reagent] to form 2-nitro-5-thiobenzoic acid, that can be detected spectrophotometrically.
(§3) The inhibitory activities of the compounds of the invention against MMP1, MMP2, MMP9 and MMP13 were tested according to the manufacturer's assay protocols and the absorbance at 415 nm was monitored using the Tecan Infinite® 200 Pro F Nano^+ microplate reader.
(§4) The normalized values were analyzed using GraphPadPrism 9 for Windows (GraphPad Software, San Diego, CA, USA) software by plotting inhibition curves and determining the IC50 values.
(§5) The calculated IC50 values were divided into the following classes: • A: <50 nM; B: 50-1000 nM; C: >1000-10,000 nM; D: >10,000 nM

MMP9 = molecular target: T2, MMP9 (Homo sapiens, UniProt P14780); assay: MMP-9 colorimetric inhibition assay (Enzo kit); settings: colorimetric thiopeptide substrate, absorbance 415 nm; read-out: MMP9 IC50 class
T2 construct: purchased Enzo Life Sciences, Inc. BML-AK410
Experimental: as §1
as §2, with “MMP-9” for “MMP-2”, “#BML-AK410)” for “#BML-AK408)”, “screen” for “screen MMP-2”, “inhibitors of matrix metalloproteinase-9” for “inhibitors”
as §3, §4, §5

MMP13 = molecular target: T3, MMP13 (Homo sapiens, UniProt P45452); assay: MMP-13 colorimetric inhibition assay (Enzo kit); settings: colorimetric thiopeptide substrate, absorbance 415 nm; read-out: MMP13 IC50 class
T3 construct: purchased Enzo Life Sciences, Inc. BML-AK412
Experimental: as §1
as §2, with “MMP-13” for “MMP-2”, “#BML-AK412)” for “#BML-AK408)”, “screen” for “screen MMP-2”, “inhibitors of matrix metalloproteinase-13” for “inhibitors”
as §3, §4, §5

T1 sequence (P08253 110-452 limits assumed): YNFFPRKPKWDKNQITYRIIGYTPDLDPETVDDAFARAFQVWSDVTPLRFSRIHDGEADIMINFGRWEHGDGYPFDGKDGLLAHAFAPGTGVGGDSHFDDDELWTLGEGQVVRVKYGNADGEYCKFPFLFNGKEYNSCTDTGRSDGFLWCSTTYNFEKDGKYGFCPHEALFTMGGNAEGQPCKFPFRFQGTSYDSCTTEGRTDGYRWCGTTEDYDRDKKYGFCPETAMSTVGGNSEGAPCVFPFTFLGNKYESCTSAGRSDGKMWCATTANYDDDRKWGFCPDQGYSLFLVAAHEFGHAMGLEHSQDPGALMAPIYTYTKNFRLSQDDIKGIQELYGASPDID
T2 sequence (P14780 94-707): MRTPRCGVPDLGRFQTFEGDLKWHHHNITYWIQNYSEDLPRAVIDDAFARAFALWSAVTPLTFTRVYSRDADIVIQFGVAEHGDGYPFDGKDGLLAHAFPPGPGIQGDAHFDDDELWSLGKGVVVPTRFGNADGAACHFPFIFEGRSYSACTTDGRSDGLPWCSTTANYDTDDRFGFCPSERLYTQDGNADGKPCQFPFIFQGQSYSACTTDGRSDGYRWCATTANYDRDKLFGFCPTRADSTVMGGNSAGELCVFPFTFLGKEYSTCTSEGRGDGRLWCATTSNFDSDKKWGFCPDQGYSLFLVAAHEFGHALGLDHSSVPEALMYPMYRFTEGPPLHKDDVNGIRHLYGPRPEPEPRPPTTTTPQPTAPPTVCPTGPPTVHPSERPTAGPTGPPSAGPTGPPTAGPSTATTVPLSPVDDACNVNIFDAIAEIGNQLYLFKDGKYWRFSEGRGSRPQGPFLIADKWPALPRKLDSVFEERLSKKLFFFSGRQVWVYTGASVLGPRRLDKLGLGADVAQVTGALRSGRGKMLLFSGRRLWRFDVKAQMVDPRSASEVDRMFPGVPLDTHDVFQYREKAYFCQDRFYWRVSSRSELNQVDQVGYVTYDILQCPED

Row | IC50 (MMP2) | IC50 (MMP9) | IC50 (MMP13) | SMILES
1 | 0.05 to 1 µM | 0.05 to 1 µM | 0.05 to 1 µM | COCCOC(=O)N1CC2CCC(C(=O)NO)(C1)N2S(=O)(=O)c1ccc(Oc2ccc(C#N)cc2)nc1 (centres unmarked) [Example 18, 2-methoxyethyl 8-((6-(4-cyanophenoxy)pyridin-3-yl)sulfonyl)-1-(hydroxycarbamoyl)-3,8-diazabicyclo[3.2.1]octane-3-carboxylate]
2 | 0.05 to 1 µM | 0.05 to 1 µM |  | O=C(Cc1ccncc1)N1CC2CCC(C(=O)NO)(C1)N2S(=O)(=O)c1cc(F)c(Oc2ccc(Cl)cc2)c(F)c1 (centres unmarked) [Example 23, 8-((4-(4-chlorophenoxy)-3,5-difluorophenyl)sulfonyl)-N-hydroxy-3-(2-(pyridin-4-yl)acetyl)-3,8-diazabicyclo[3.2.1]octane-1-carboxamide]
3 | 0.05 to 1 µM | 0.05 to 1 µM |  | O=C(N1CCOCC1)N1CC2CCC(C(=O)NO)(C1)N2S(=O)(=O)c1cc(F)c(Oc2ccc(Cl)cc2)c(F)c1 (centres unmarked) [Example 24, 8-((4-(4-chlorophenoxy)-3,5-difluorophenyl)sulfonyl)-N-hydroxy-3-(morpholine-4-carbonyl)-3,8-diazabicyclo[3.2.1]octane-1-carboxamide]
4 | 0.05 to 1 µM | 0.05 to 1 µM |  | O=C(CCN1CCOCC1)N1CC2CCC(C(=O)NO)(C1)N2S(=O)(=O)c1cc(F)c(Oc2ccc(Cl)cc2)c(F)c1 (centres unmarked) [Example 25, 8-((4-(4-chlorophenoxy)-3,5-difluorophenyl)sulfonyl)-N-hydroxy-3-(3-morpholinopropanoyl)-3,8-diazabicyclo[3.2.1]octane-1-carboxamide]
5 | 0.05 to 1 µM | 0.05 to 1 µM |  | COCCOC(=O)N1C[C@H]2CC[C@@](C(=O)NO)(C1)N2S(=O)(=O)c1ccc(Oc2ccc(F)cc2)c(F)c1 [Example 30, 2-methoxyethyl (1S,5R)-8-((3-fluoro-4-(4-fluorophenoxy)phenyl)sulfonyl)-1-(hydroxycarbamoyl)-3,8-diazabicyclo[3.2.1]octane-3-carboxylate]
6 | < 0.05 µM | 0.05 to 1 µM |  | COCCOC(=O)N1C[C@@H]2CC[C@](C(=O)NO)(C1)N2S(=O)(=O)c1ccc(Oc2ccc(F)cc2)c(F)c1 [Example 31, 2-methoxyethyl (1R,5S)-8-((3-fluoro-4-(4-fluorophenoxy)phenyl)sulfonyl)-1-(hydroxycarbamoyl)-3,8-diazabicyclo[3.2.1]octane-3-carboxylate]
7 | 0.05 to 1 µM | 1 to 10 µM |  | O=C(NO)C12CCC(CNC1)N2S(=O)(=O)c1cc(F)c(Oc2ccc(Cl)cc2)c(F)c1 (centres unmarked) [Example 32, 8-((4-(4-chlorophenoxy)-3,5-difluorophenyl)sulfonyl)-N-hydroxy-3,8-diazabicyclo[3.2.1]octane-1-carboxamide]
8 | > 10 µM | > 10 µM | > 10 µM | COCCOC(=O)N1CC2CCC(C(=O)NO)(C1)N2C(=O)c1cc(F)c(Oc2ccc(Cl)cc2)c(F)c1 (centres unmarked) [Example 34, 2-methoxyethyl 8-(4-(4-chlorophenoxy)-3,5-difluorobenzoyl)-1-(hydroxycarbamoyl)-3,8-diazabicyclo[3.2.1]octane-3-carboxylate]

The remaining lines, values behind:

Row | SMILES | IC50 (MMP2) | IC50 (MMP9) | IC50 (MMP13)
9 | COCCOC(=O)N1CC2CCC(C(=O)NO)(C1)N2S(=O)(=O)c1cc(F)c(Oc2ccc(Cl)cc2)c(F)c1 (centres unmarked) [Example 1, 2-methoxyethyl 8-((4-(4-chlorophenoxy)-3,5-difluorophenyl)sulfonyl)-1-(hydroxycarbamoyl)-3,8-diazabicyclo[3.2.1]octane-3-carboxylate] | 0.05 to 1 µM |  | 
10 | COCCOC(=O)N1CC2CCC(C(=O)NO)(C1)N2S(=O)(=O)c1cc(F)c(Oc2ccc(F)cc2)c(F)c1 (centres unmarked) [Example 2, 2-Methoxyethyl 8-((3,5-difluoro-4-(4-fluorophenoxy)phenyl)sulfonyl)-1-(hydroxy-carbamoyl)-3,8-diazabicyclo[3.2.1]octane-3-carboxylate] | 0.05 to 1 µM | 0.05 to 1 µM | 1 to 10 µM
11 | O=C(c1ccncc1)N1CC2CCC(C(=O)NO)(C1)N2S(=O)(=O)c1cc(F)c(Oc2ccc(Cl)cc2)c(F)c1 (centres unmarked) [Example 3, 8-((4-(4-chlorophenoxy)-3,5-difluorophenyl)sulfonyl)-N-hydroxy-3-isonicotinoyl-3,8-diazabicyclo[3.2.1]octane-1-carboxamide] | 0.05 to 1 µM | 1 to 10 µM | 
12 | O=C(CN1CCOCC1)N1CC2CCC(C(=O)NO)(C1)N2S(=O)(=O)c1cc(F)c(Oc2ccc(Cl)cc2)c(F)c1 (centres unmarked) [Example 4, 8-((4-(4-chlorophenoxy)-3,5-difluorophenyl)sulfonyl)-N-hydroxy-3-(2-morpholinoacetyl)-3,8-diazabicyclo[3.2.1]octane-1-carboxamide] | 0.05 to 1 µM | 0.05 to 1 µM | 1 to 10 µM
13 | O=C(N1CCCCC1)N1CC2CCC(C(=O)NO)(C1)N2S(=O)(=O)c1cc(F)c(Oc2ccc(Cl)cc2)c(F)c1 (centres unmarked) [Example 6, 8-((4-(4-chlorophenoxy)-3,5-difluorophenyl)sulfonyl)-N-hydroxy-3-(piperidine-1-carbonyl)-3,8-diazabicyclo[3.2.1]octane-1-carboxamide] | 0.05 to 1 µM | 0.05 to 1 µM | 
14 | O=C(CN1CCCCC1)N1CC2CCC(C(=O)NO)(C1)N2S(=O)(=O)c1cc(F)c(Oc2ccc(Cl)cc2)c(F)c1 (centres unmarked) [Example 7, 8-((4-(4-chlorophenoxy)-3,5-difluorophenyl)sulfonyl)-N-hydroxy-3-(2-(piperidin-1-yl)acetyl)-3,8-diazabicyclo[3.2.1]octane-1-carboxamide] | 0.05 to 1 µM | 1 to 10 µM | 1 to 10 µM
15 | COCCOC(=O)N1CC2CCC(C(=O)NO)(C1)N2S(=O)(=O)c1ccc(-c2cccc(F)c2)nc1 (centres unmarked) [Example 9, 2-methoxyethyl 8-((6-(3-fluorophenyl)pyridin-3-yl)sulfonyl)-1-(hydroxycarbamoyl)-3,8-diazabicyclo[3.2.1]octane-3-carboxylate] | 0.05 to 1 µM | 1 to 10 µM | 1 to 10 µM
16 | COCCOC(=O)N1CC2CCC(C(=O)NO)(C1)N2S(=O)(=O)c1ccc(OCc2ccc(F)cc2Cl)cc1 (centres unmarked) [Example 15, 2-methoxyethyl 8-((4-((2-chloro-4-fluorobenzyl)oxy)phenyl)sulfonyl)-1-(hydroxycarbamoyl)-3,8-diazabicyclo[3.2.1]octane-3-carboxylate] | > 10 µM | 1 to 10 µM | 1 to 10 µM
17 | COCCOC(=O)N1CC2CCC(C(=O)NO)(C1)N2S(=O)(=O)c1ccc(NC(=O)c2ccc(OC)cc2)cc1 (centres unmarked) [Example 17, 2-methoxyethyl 1-(hydroxycarbamoyl)-8-((4-(4-methoxybenzamido)phenyl)sulfonyl)-3,8-diazabicyclo[3.2.1]octane-3-carboxylate] | 0.05 to 1 µM | 0.05 to 1 µM | 0.05 to 1 µM
